The target in test [1] is T1, MKNK1 (Homo sapiens, UniProt Q9BUB5, T385D).
T1 construct: GST (N); purchased Carna Biosciences 02-145; host or cells: insect cells (baculovirus expression system)
Put plainly: MKNK1 kinase assay (MKNK1 TR-FRET assay). In kind it is biochemical. Particulars: 10 μM ATP, 15 min preincubation. The source says:
MKNK1-inhibitory activity of compounds of the present invention was quantified employing the MKNK1 TR-FRET assay as described in the following paragraphs.
A recombinant fusion protein of Glutathione-S-Transferase (GST, N-terminally) and human full-lengt MKNK1 (amino acids 1-424 and T344D of accession number BAA 19885.1), expressed in insect cells using baculovirus expression system and purified via glutathione sepharose affinity chromatography, was purchased from Carna Biosciences (product no 02-145) and used as enzyme. As substrate for the kinase reaction the biotinylated peptide biotin-Ahx-IKKRKLTRRKSLKG (C-terminus in amide form) was used which can be purchased e.g. form the company Biosyntan (Berlin-Buch, Germany).
For the assay 50 nL of a 100 fold concentrated solution of the test compound in DMSO was pipetted into a black low volume 384 well microtiter plate (Greiner Bio-One, Frickenhausen, Germany), 2 μL of a solution of MKNK1 in aqueous assay buffer [50 mM HEPES pH 7.5, 5 mM magnesium chloride, 1.0 mM dithiothreitol, 0.005% (v/v) Nonidet-P40 (Sigma)] was added and the mixture was incubated for 15 min at 22° C. to allow pre-binding of the test compounds to the enzyme before the start of the kinase reaction. […] The concentration of MKNK1 was adjusted depending of the activity of the enzyme lot and was chosen appropriate to have the assay in the linear range, typical concentrations were in the range of […]. The reaction was stopped by the addition of 5 μL of a solution of TR-FRET detection reagents (5 nM streptavidine-XL665 [Cisbio Bioassays, Codolet, France] and 1 nM anti-ribosomal protein S6 (pSer236)-antibody from Invitrogen [#44921G] and 1 nM LANCE EU-W1024 labeled ProteinG [Perkin-Elmer, product no. AD0071]) in an aqueous EDTA-solution (100 mM EDTA, 0.1% (w/v) bovine serum albumin in 50 mM HEPES pH 7.5).
The resulting mixture was incubated for 1 h at 22° C. to allow the formation of complex between the phosphorylated biotinylated peptide and the detection reagents. Subsequently the amount of phosphorylated substrate was evaluated by measurement of the resonance energy transfer from the Eu-chelate to the streptavidine-XL. Therefore, the fluorescence emissions at 620 nm and 665 nm after excitation at 350 nm were measured in a TR-FRET reader, e.g. a Rubystar (BMG Labtechnologies, Offenburg, Germany) or a Viewlux (Perkin-Elmer). The ratio of the emissions at 665 nm and at […] was taken as the measure for the amount of phosphorylated substrate. The data were normalised (enzyme reaction without inhibitor=0% inhibition, all other assay components but no enzyme=100% inhibition).
(In general: TR-FRET usually uses a lanthanide donor and a delayed reading to cut background.)

The target of test [2] is T1, MKNK1. Put plainly: MKNK1 kinase high ATP assay (TR-FRET-based). It is filed as biochemical. Particulars: 2 mM ATP, 15 min preincubation. In outline: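 GST-tagged full-length human MKNK1 (aa 1-424, T344D) from insect cells, preincubated with compound 15 min at 22 °C. Reaction 30 min at 22 °C with 2 mM ATP and 0.06 μM biotinylated peptide in HEPES pH 7.5, Mg2+, DTT. Phosphopeptide detected by TR-FRET (665/622 ratio) with anti-pS6 (pSer236) antibody; normalised to no-inhibitor and no-enzyme controls.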

pIC50: −log10 of the molar value.

T1 sequence (Q9BUB5 1-424 isoform Q9BUB5-2 T344D): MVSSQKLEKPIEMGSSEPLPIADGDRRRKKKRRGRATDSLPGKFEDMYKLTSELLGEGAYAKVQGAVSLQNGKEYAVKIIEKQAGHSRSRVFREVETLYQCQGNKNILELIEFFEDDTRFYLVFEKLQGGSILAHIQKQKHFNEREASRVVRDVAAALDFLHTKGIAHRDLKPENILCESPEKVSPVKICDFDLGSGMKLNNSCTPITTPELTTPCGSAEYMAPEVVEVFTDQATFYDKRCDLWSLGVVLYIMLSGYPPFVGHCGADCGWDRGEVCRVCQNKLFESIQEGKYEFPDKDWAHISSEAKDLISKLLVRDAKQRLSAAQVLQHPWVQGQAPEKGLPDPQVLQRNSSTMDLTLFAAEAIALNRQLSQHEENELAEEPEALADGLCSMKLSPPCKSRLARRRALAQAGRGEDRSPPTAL

Regarding `C[C@@H]1COCCN1c1cccc2oc(-c3cnc4ccc(OC[C@@H](C)N)nn34)cc12` [II-37, (2R)-1-[(3-{4-[(3R)-3-methylmorpholin-4-yl]-1-benzofuran-2-yl}imidazo[1,2-b]pyridazin-6-yl)oxy]propan-2-amine], the negative logarithm of the IC50 (pIC50) against MKNK1 [1] (Table 1b) is 7.36; against MKNK1 [2] (Table 2b), 7.16.

In the case of `CCC(C)C(=O)NCCOc1ccc2ncc(-c3cc4ccccc4o3)n2n1` (centres unmarked) [Example I-73, N-(2-{[3-(1-Benzofuran-2-yl)imidazo[1,2-b]-pyridazin-6-yl]oxy}ethyl)-2-methylbutanamide], the pIC50 is 8.25 at MKNK1 [1] (Table 1a) and 7.78 on MKNK1 [2] (Table 2a).

Take `Cn1cc(C(=O)N2CCC[C@H]2CCOc2ccc3ncc(-c4cc5ccccc5o4)n3n2)cn1` [Example I-48, [(2S)-2-(2-{[3-(1-Benzofuran-2-yl)imidazo[1,2-b]-pyridazin-6-yl]oxy}ethyl)pyrrolidin-1-yl](1-methyl-1H-pyrazol-4-yl)methanone]: the pIC50 against MKNK1 [1] (Table 1a) was 8.74; against MKNK1 [2] (Table 2a), 8.64.

With `O=C(c1ccco1)N1CCC[C@H]1CCOc1ccc2ncc(-c3cc4ccccc4o3)n2n1` [Example I-49, [(2S)-2-(2-{[3-(1-Benzofuran-2-yl)imidazo[1,2-b]-pyridazin-6-yl]oxy}ethyl)pyrrolidin-1-yl](furan-2-yl)methanone], the pIC50 on MKNK1 [1] (Table 1a) was 8.96; on MKNK1 [2] (Table 2a) it was 8.62.

As for `CCN(CCOC)c1cccc2oc(-c3cnc4ccc(OC[C@H](C)N)nn34)cc12` [II-24, 2-(6-{[(2S)-2-Aminopropyl]oxy}imidazo[1,2-b]pyridazin-3-yl)-N-ethyl-N-(2-methoxyethyl)-1-benzofuran-4-amine], the pIC50 at MKNK1 [1] (Table 1b) is 8.48; against MKNK1 [2] (Table 2b), 8.49.

Consider `O=C(NCCOc1ccc2ncc(-c3cc4ccccc4o3)n2n1)c1ccccc1Cl` [Example I-65, N-(2-{[3-(1-Benzofuran-2-yl)imidazo[1,2-b]-pyridazin-6-yl]oxy}ethyl)-2-chlorobenzamide], for which the values for the pIC50 at MKNK1 [1] (Table 1a) and against MKNK1 [2] (Table 2a) were 8.28 and 7.93, respectively.

Regarding `COC[C@H]1CCCN1c1nccc2oc(-c3cnc4ccc(OC[C@@H]5COCCN5)nn34)cc12` [III-37, 3-{4-[(2R)-2-(Methoxymethyl)pyrrolidin-1-yl]furo[3,2-c]pyridin-2-yl}-6-[(3S)-morpholin-3-ylmethoxy]imidazo[1,2-b]pyridazine], the pIC50 at MKNK1 [1] (Table 1c) is 8.96; against MKNK1 [2] (Table 2c), 7.95.

As to `COCC(=O)N1CCC[C@H]1CCOc1ccc2ncc(-c3cc4ccccc4o3)n2n1` [Example I-58, 1-[(2S)-2-(2-{[3-(1-Benzofuran-2-yl)imidazo[1,2-b]-pyridazin-6-yl]oxy}ethyl)pyrrolidin-1-yl]-2-methoxyethanone], the pIC50 at MKNK1 [1] (Table 1a) was 8.59; against MKNK1 [2] (Table 2a) it was 8.28.

As for `C[C@H](CN)Oc1ccc2ncc(-c3cc4c(N5CCOCC5)nccc4o3)n2n1` [III-30, (2R)-2-({3-[4-(Morpholin-4-yl)furo[3,2-c]pyridin-2-yl]imidazo[1,2-b]pyridazin-6-yl}oxy)propan-1-amine], the pIC50 on MKNK1 [1] (Table 1c) was 8.30; on MKNK1 [2] (Table 2c) it was 7.98.

Regarding `COc1ccc2ncc(-c3cc4c(N5CCNCC5)cccc4o3)n2n1` [II-21, 6-Methoxy-3-[4-(piperazin-1-yl)-1-benzofuran-2-yl]imidazo[1,2-b]pyridazine], the pIC50 against MKNK1 [1] (Table 1b) and on MKNK1 [2] (Table 2b) was 9.52 each time.

For `CCN(CCOC)c1nccc2oc(-c3cnc4ccc(OC[C@@H]5CCC(=O)N5)nn34)cc12` [III-86, (S)-5-{[(3-{4-[Ethyl(2-methoxyethyl)amino]furo[3,2-c]pyridin-2-yl}imidazo[1,2-b]pyridazin-6-yl)oxy]methyl}pyrrolidin-2-one], the results for the pIC50 at MKNK1 [1] (Table 1c) and against MKNK1 [2] (Table 2c) were 9.15 and 9.30, respectively.

Take `C[C@@H](N)COc1ccc2ncc(-c3cc4c(N5CCO[C@@H](C)C5)cccc4o3)n2n1` [II-76, (2R)-1-[(3-{4-[(2S)-2-methylmorpholin-4-yl]-1-benzofuran-2-yl}imidazo[1,2-b]pyridazin-6-yl)oxy]propan-2-amine]: the pIC50 against MKNK1 [1] (Table 1b) was 8.16; on MKNK1 [2] (Table 2b), 7.74.

For `CCN(CCOC)c1nccc2oc(-c3cnc4ccc(OCCC[S@@](C)(=O)=NC#N)nn34)cc12` [III-137, [{3-[(3-{4-[ethyl(2-methoxyethyl)ami-no]furo[3,2-c]pyridin-2-yl}imidazo[1,2-b]pyridazin-6-yl)oxy]propyl}(methyl)oxido-λ^6-sulfanylidene]cyanamide], the figures for the pIC50 against MKNK1 [1] (Table 1c) and against MKNK1 [2] (Table 2c) were 8.57 and 9.22, respectively.

Regarding `COC[C@H]1CCCN1c1nccc2oc(-c3cnc4ccc(O[C@H](C)CN)nn34)cc12` [III-31, (2R)-2-[(3-{4-[(2R)-2-(Methoxymethyl)pyrrolidin-1-yl]furo[3,2-c]pyridin-2-yl}imidazo[1,2-b]pyridazin-6-yl)oxy]propan-1-amine], the pIC50 is 9.30 against MKNK1 [1] (Table 1c) and 8.52 against MKNK1 [2] (Table 2c).

`CN(CCCO)c1nccc2oc(-c3cnc4ccc(OC[C@H]5CCC(=O)N5)nn34)cc12` [III-73, (5R)-5-{[(3-{4-[(3-Hydroxypropyl)(methyl)amino]furo[3,2-c]pyridin-2-yl}imidazo[1,2-b]pyridazin-6-yl)oxy]methyl}pyrrolidin-2-one]: the pIC50 on MKNK1 [1] (Table 1c) is 9.22; on MKNK1 [2] (Table 2c), 9.10.

As to `C[C@H]1CN(c2cccc3oc(-c4cnc5ccc(OC[C@H]6CCC(=O)N6)nn45)cc23)CCO1` [II-27, (5R)-5-{[(3-{4-[(2S)-2-methylmorpholin-4-yl]-1-benzofuran-2-yl}imidazo[1,2-b]pyridazin-6-yl)oxy]methyl}pyrrolidin-2-one], the pIC50 against MKNK1 [1] (Table 1b) is 8.66; against MKNK1 [2] (Table 2b) it was 8.24.

On to `CCN(CCOC)c1cccc2oc(-c3cnc4ccc(OCCCS(C)(=O)=O)nn34)cc12` [II-23, N-Ethyl-N-(2-methoxyethyl)-2-{6-[3-(methylsulfonyl)propoxy]imidazo[1,2-b]-pyridazin-3-yl}-1-benzofuran-4-amine], for which the pIC50 was 8.70 against MKNK1 [1] (Table 1b) and 8.72 at MKNK1 [2] (Table 2b).

Take `C[C@@H]1COCCN1c1nccc2oc(-c3cnc4ccc(O[C@H]5C[C@H](N)C5)nn34)cc12` [III-107, trans-3-[(3-{4-[(3R)-3-Methylmorpholin-4-yl]furo[3,2-c]pyridin-2-yl}imidazo[1,2-b]pyridazin-6-yl)oxy]cyclobutanamine]: the pIC50 at MKNK1 [1] (Table 1c) is 8.32; against MKNK1 [2] (Table 2c), 7.93.

Consider `COC[C@H]1CCCN1c1cccc2oc(-c3cnc4ccc(OC[C@H](C)N)nn34)cc12` [II-8, (2S)-1-[(3-{4-[(2R)-2-(Methoxymethyl)pyrrolidin-1-yl]-1-benzofuran-2-yl}-imidazo[1,2-b]pyridazin-6-yl)oxy]propan-2-amine], for which the figures for the negative logarithm of the IC50 (pIC50) against MKNK1 [1] (Table 1b) and at MKNK1 [2] (Table 2b) were 8.70 and 8.57, respectively.

As for `C[C@@H]1CN(c2nccc3oc(-c4cnc5ccc(OC[C@@H](C)N)nn45)cc23)CCO1` [III-121, (2R)-1-[(3-{4-[(2R)-2-methylmorpholin-4-yl]furo[3,2-c]pyridin-2-yl}imidazo[1,2-b]pyridazin-6-yl)oxy]propan-2-amine], the pIC50 was 7.94 against MKNK1 [1] (Table 1c) and 7.89 against MKNK1 [2] (Table 2c).

Consider `C[C@@H]1COCCN1c1nccc2oc(-c3cnc4ccc(OCCCS(C)(=O)=O)nn34)cc12` [III-58, 3-{4-[(3R)-3-Methylmorpholin-4-yl]furo[3,2-c]pyridin-2-yl}-6-[3-(methyl-sulfonyl)propoxy]imidazo[1,2-b]pyridazine], for which the pIC50 at MKNK1 [1] (Table 1c) is 9.00; against MKNK1 [2] (Table 2c), 8.36.

Take `N[C@H]1C[C@H](Oc2ccc3ncc(-c4cc5c(N6CCN(c7ccccc7)CC6)nccc5o4)n3n2)C1` [III-106, trans-3-({3-[4-(4-Phenylpiperazin-1-yl)furo[3,2-c]pyridin-2-yl]imidazo[1,2-b]pyridazin-6-yl}oxy)cyclobutanamine]: the pIC50 is 7.99 at MKNK1 [1] (Table 1c) and 8.04 against MKNK1 [2] (Table 2c).

As a reminder, the pIC50 is the negative decadic logarithm of the IC50, by convention in mol/L. A lower pIC50 goes with a high IC50.

Source of the values: US20160287589A1, “SUBSTITUTED-IMIDAZOPYRIDAZINES” (BAYER PHARMA AKTIENGESELLSCHAFT, priority 2013, published 2016).
